Data as given in patent US11406644B2, “Tropomyosin-related kinase (TRK) inhibitors” (Genzyme Corporation, priority 2013, dated 2022).
Structures can show the parent of a compound that is named as a salt.

Key:
TrkB = TrkB (Homo sapiens (Human), UniProt Q16620); assay: TrkB activity, off-chip mobility shift assay (LabChip 3000); format: biochemical; details: 300 pM TrkB, 70 μM ATP (ATP Km)
Excerpt: (§1) Reagents and consumables were purchased from Sigma Aldrich, Carna Biosciences, or Caliper Life Sciences. All assay reaction conditions for IC50 determinations were within the linear range with respect to time and enzyme concentration. […] The LabChip 3000 separates and measures the fluorescent signal of fluorescein labeled peptide substrate and fluorescein labeled peptide product present in each well. Results are expressed as percent conversion by measuring peak height for both the substrate and product and dividing the product peak height by the sum of peak heights for both substrate and product.

TrkA = TrkA (Homo sapiens (Human), UniProt P04629); assay: TrkA activity, off-chip mobility shift assay (LabChip 3000); format: biochemical; details: 200 pM TrkA, 55 μM ATP (ATP Km)
Excerpt: as §1

[1] = system: Male Lewis rats with PGPS knee arthritis; assay: Reactivated peptidoglycan-polysaccharide (PGPS) knee arthritis; format: in vivo, rat
Excerpt: Male Lewis rats were acclimated to the testing facility for 7 days. The rats were housed in 5 per cage in shoe-box polycarbonate cages with wire tops, wood chip bedding and suspended food and water bottles.
On day −21, the male Lewis rats were randomized into treatment groups by body weight. The rats were anesthetized and injected with peptidoglycan-polysaccharide (PGPS) into the right knee to induce PGPS arthritis. Arthritis was reactivated on days 0 and 14 by an IV tail injection of PGPS.
The rats were weighed at baseline on days 0, 4, 14 and 18. Knee thickness was measured by caliper at baseline and on days 0, 2, 4, 14, 16 and 18. Gait analysis occurred on days 0-4 and 14-18, with video recording of selected animals on days 3 and 17. Gait analysis was performed by applying ink to the ventral surface of the foot and documenting weight bearing during movement across paper.
The animals were terminated at day 18. Right knees were removed, trimmed of extraneous tissue, and collected into 10% neutral buffered formalin. After two days in the formalin buffer and three days in 10% formic acid decalcifier, the knees were cut into two approximately equal halves in the frontal plane and processed for paraffin embedding and stained with T. Blue. Histological examinations were subsequently performed for bone resorption, inflammation, pannus and cartilage damage.
Body weights, gait deficiency and caliper measurements were analyzed using a one-way analysis of variance (1-way ANOVA) with Dunnett's multiple comparison post-test. Gait scores were analyzed using a Kruskal-Wallis test (non-parametric ANOVA) with Dunn's multiple comparison post-test. Histopathology scores were analyzed using a Kruskal-Wallis test (non-parametric ANOVA) with Dunn's multiple comparison post-test.

[2] = system: Male Wistar rats with MIA induced osteoarthritis; assay: Monosodium iodoacetate (MIA) induced osteoarthritis; format: in vivo, rat; details: for MIA/LRS placebo group compared with treated group at day 35: p<0.05
Excerpt: Male Wistar rats were acclimated to the testing facility for 5 days. The rats were individually housed in micro-isolator shoe-box polycarbonate cages with cob bedding and water bottles. Dry pelleted food of known composition and nutritional components was provided ad libitum
Animals were randomized by treatment type using an online random number generator. Each treatment group was assigned a number, entered into the random number generator, recorded then translated back to the associated treatment. All injections were given in the left leg unless the treatment indicated “Contralateral” in which case the injection was given in the right leg. Both legs were shaved on all animals at the time of the treatment injections to blind the test administrator.
The rats were weighed the day prior to injection with monosodium iodoacetate (MIA), the agent used to induce osteoarthritis in the animals. The day of injection, rats from groups 2-8 received a subcutaneous (SC) dose of buprenorphine at least one hour prior to induction. […] Naïve animals were then placed in recovery. All other animals received an injection of MIA. In animals receiving MIA, the hind leg was flexed and an injection of MIA (25 μL) was injected into the intra-articular space using a 27 gauge ½ Inch Needle. Standard postoperative care was performed (twice daily for 48 hours).
On Day 8 the test article was administered as described above. On Days −1, 7, 14, 21, 28, and 35 post-induction, weight bearing was assessed. A weight bearing scale was utilized using a plexiglass chamber to assess the amount of weight distributed in each hind limb. The animals were acclimated to the chamber for at least 5 minutes prior to testing and the weight distribution was recorded 5 times.
The animals were terminated at day 36. Both stifles were collected from each animal; the skin was removed from the joint and the patella was removed while leaving as much of the fat pad intact with the joint. The stifle was placed in the appropriate cassette with rolled gauze to secure the stifle in the cassette and then placed into 4% Paraformaldehyde. These samples were examined histologically.

[3] = 0.06 mg intra-articular on day −7

TrkB, sequence (Q16620 456-822): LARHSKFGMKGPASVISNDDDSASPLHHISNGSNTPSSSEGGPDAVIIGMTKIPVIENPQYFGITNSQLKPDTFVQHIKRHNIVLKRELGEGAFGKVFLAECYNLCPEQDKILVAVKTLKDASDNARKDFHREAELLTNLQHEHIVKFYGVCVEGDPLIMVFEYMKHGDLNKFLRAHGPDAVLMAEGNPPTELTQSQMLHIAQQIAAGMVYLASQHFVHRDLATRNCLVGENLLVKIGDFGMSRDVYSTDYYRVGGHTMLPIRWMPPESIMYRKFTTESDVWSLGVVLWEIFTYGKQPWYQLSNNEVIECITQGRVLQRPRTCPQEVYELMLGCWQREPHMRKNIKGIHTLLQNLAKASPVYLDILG
TrkA, sequence (P04629 442-796): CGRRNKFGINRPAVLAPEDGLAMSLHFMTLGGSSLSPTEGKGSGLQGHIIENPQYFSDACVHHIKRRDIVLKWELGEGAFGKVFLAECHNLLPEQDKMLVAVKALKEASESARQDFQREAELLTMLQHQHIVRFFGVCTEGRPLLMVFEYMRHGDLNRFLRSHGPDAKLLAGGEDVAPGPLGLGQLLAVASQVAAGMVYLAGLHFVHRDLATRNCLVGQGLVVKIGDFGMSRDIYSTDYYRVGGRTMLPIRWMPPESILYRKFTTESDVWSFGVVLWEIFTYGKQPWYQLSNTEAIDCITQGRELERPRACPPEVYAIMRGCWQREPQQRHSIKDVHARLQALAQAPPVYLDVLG

Compound: COc1ccc(COc2ccc(Cn3cnc4cc(-c5cnn(C6CCNCC6)c5)ccc43)cc2OC)cn1 [Ex. 3-5]
- IC50 (TrkB): 5 nM
- IC50 (TrkA): 6 nM

Compound: COc1ccc(COc2ccc(Cn3c(N)nc4cc(-c5cnn(C)c5)cnc43)cc2OC)cc1 [Ex. 3-15, 3-(3-Methoxy-4-((4-methoxybenzyl)oxy)benzyl)-6-(1-methyl-1H-pyrazol-4-yl)-3H-imidazo[4,5-b]pyridin-2-amine]
- knee caliper AUC values ([1]; 1 mg intra-articular on day −7): generally unaffected
- reduction of gait AUC values (scores and deficiency), first reactivation ([1]; 1 mg intra-articular on day −7): 92-93%
- reduction of gait AUC values (scores and deficiency), second reactivation ([1]; 1 mg intra-articular on day −7): 85-86%
- knee caliper measurements ([1]; 1 mg intra-articular on day −7, day 14 (just prior to second reactivation)): significantly reduced
- reductions in gait deficiency, second reactivation ([1]; 1 mg intra-articular on day −7, days 15, 17 and 18): significant
- gait scores and deficiency, first reactivation ([1]; 1 mg intra-articular on day −7, throughout first reactivation): significant reductions
- gait scores, second reactivation ([1]; 1 mg intra-articular on day −7, throughout second reactivation): significantly reduced
- efficacy (weight bearing) ([2]; 10 μg Contralateral injection): efficacy at 3 and 4 weeks
- efficacy (weight bearing) ([2]; 10 μg Ipsilateral injection): efficacy was observed at 2 through 4 weeks
- efficacy (weight bearing) ([2]; 30 μg Contralateral injection): efficacy at only the 3 week timepoint
- efficacy (weight bearing) ([2]; 30 μg Ipsilateral injection): effective throughout the four weeks following administration
- MIA/LRS placebo group compared with treated group at day 35 ([2]; 30 μg Ipsilateral): significantly worse
- systemic pain relief (weight bearing) ([2]; 100 μg Contralateral injection, 1-4 weeks): did not show systemic pain relief at any timepoint
- efficacy (weight bearing) ([2]; 100 μg Ipsilateral injection): effective throughout the four weeks following administration
- MIA/LRS placebo group compared with treated group at day 35 ([2]; 100 μg Ipsilateral): significantly worse
- body weight results, adverse observations due to treatment ([2]; intra-articular 10-100 μg on day 8): No adverse observations
- histopathology of knee joint, adverse changes ([2]; stifles collected at day 36): no adverse changes

Compound: COc1ccc(-c2cnc3c(c2)ncn3Cc2ccc(OC(C)c3ccc(OC)nc3)c(OC)c2)cn1 (centres unmarked) [Ex. 3-58-2, 3-(3-methoxy-4-(1-(6-methoxypyridin-3-yl)ethoxy)benzyl)-6-(6-methoxypyridin-3-yl)-3H-imidazo[4,5-b]pyridine formate]
- IC50 (TrkB): 610 nM

Compound: C[C@]12C=CC(=O)C=C1CC[C@H]1[C@@H]3C[C@@H](O)[C@](O)(C(=O)CO)[C@@]3(C)C[C@H](O)[C@@]12F [Triamcinolone, reference compound]
- reduction of gait AUC values, each reactivation calculated separately [1, 3]: 74-99%
- reduction of gait AUC values, summed [1, 3]: 88-92%
- reductions in knee caliper AUC [1, 3]: 53-106%
